In patent publication US20190328658A1, “ESTROGEN PRODRUGS AND METHODS OF ADMINISTERING ESTROGEN PRODRUGS” (Evestra, Inc., priority 2018, published 2019):
Converted amounts (≈) assume the structure as drawn.

Key:
[1] = EP '025; cited from earlier work
[2] = in vitro release rates of estriol prodrugs from intravaginal rings; type: physicochemical; settings: for Burst Release d1 / Burst Release d2 / Average API release d3-d21: ring, API loading 5.0 %, core polymer EVA28/2.5 (E3: EVA26/4.0), 37°C; for Burst Release d1: day 1; for Burst Release d2: day 2; for Average API release d3-d21: days 3-21
Protocol: The estriol prodrugs were processed via hot-melt extrusion and subsequent ring closure to intravaginal rings: […] The hot melt extrusion line for processing the estriol containing EVA28 powder consisted of an 18 mm twin screw extruder, equipped with a loss in weight feeder for dosing the drug containing premix into the extruder. Extrusion was performed at low throughputs of approx. 2 kg/h, the temperature profile of the extruder barrels was adjusted to yield a melt temperature of approx. 125° C. After leaving the die, the strands were directly conveyed through a water bath to obtain a fast cooling process and minimize potential strand deformation. As haul-off unit, a strand pelletizer without knives was used to pull and convey the strand accurately through all downstream sections, ensuring homogeneous strand diameters and a […] shape. […] The cross-sectional diameter of the co-extrudate was measured in-line with a laser system (3 laser heads). […] Alternatively, the ring closure was accomplished via an injection molding process equipment, equipped with a 4.0 mm mold (one or multiple cavities), using EVA28 placebo material as injection material. To determine the in vitro release rates, a rotational incubator, operated at 37±0.5° C., is used. The dissolution medium type, the dissolution medium volume and the rotational speed of the used incubator are selected to provide sink conditions.

[3] = Caco-2 permeability (A-to-B); type: in vitro ADME; settings: human; Caco-2, A-to-B, 120 minutes, dosing 5myM
Protocol: (§1) Caco-2 cells (clone C2BBel) were obtained from American Culture Collection. Cell monolayers were grown to confluence on collagen-coated, microporous membranes in 12-well assay plates. The permeability assay buffer was Hank's balanced salt solution. The buffer in the receiving chamber also contained 1% bovine serum albumin. The dosing solution concentration was 5myMof test article in the assay buffer. Cell monolayers were dosed on the apical side (A-to-B) and incubated at 37° C. with 5% CO2 in a humidified incubator. Samples were taken from the donor and receiver chamber at 120 minutes. All samples were assayed by LC-MS/MS using electrospray ionization. The apparent permeability (Papp) were calculated as follows: […]
(§2) With dCr/dt being the slope of the cumulative concentration in the recover compartment versus time in ny Ms^−1;
(§3) Vr is the volume of the receiver compartment in cm^3
(§4) A is the area of the insert (1.13 cm^2 for 12-well)

Log P = type: physicochemical; settings: Table 2
Text: Example 10: Determination of Log p and Permeability Values of Estriol Prodrugs

[4] = Solubility in EVA by hot stage microscopy; type: physicochemical; settings: for Solubility in EVA28/2.5 at 37° C. (via HSM): EVA28/2.5, hot stage microscopy
Text: Solubilities in EVA were estimated by hot stage microscopy.

physchem = settings: 37 °C, water, thermodynamic from solid
Protocol: (§5) Solubilities were determined by shaking (24 hours) an excess of steroid in 20 ml of water/medium at 37° C. Following equilibrium, a portion was passed through a 0,22m-my filter and the steroid concentration in the filtrate was determined by high-performance liquid chromatography.

[5] = tested on: Caco-2 cells (clone C2BBel); test: Caco-2 permeability (A-to-B); type: in vitro ADME; settings: Caco-2
Protocol: as §1, §2, §3, §4

[6] = stated in discussion; cited from earlier work
[7] = depending on the model applied; cited from earlier work
[8] = vaginal or oral application; cited from earlier work
[9] = Solubility in water/medium (shaking 24 hours, HPLC); settings: 37 °C, thermodynamic from solid
Protocol: as §5

[10] = cited from earlier work

Row | Structure (SMILES) | Burst Release d1 [2] [µg] | Burst Release d2 [2] [µg] | Average API release d3-d21 [2] [µg/day] | Papp A→B at 120 min, 5 µM [3] [×10⁻⁶ cm/s] | recovery at 120 min, 5 µM [3] [%] | logP (Log P) | Solubility in EVA28/2.5 at 37° C. (via HSM) [4] | solubility at 24 h (physchem) [µg/mL] | further results
1 | CC(=O)O[C@H]1CC[C@H]2[C@@H]3CCc4cc(O)ccc4[C@H]3CC[C@]12C [17-acetate derivative of estradiol] | – | – | – | – | – | – | – | – | daily release rate compared to estradiol [1]: around 3 fold
2 | C[C@]12CCC3c4ccc(O)cc4CCC3C1C[C@@H](O)[C@@H]2OC(=O)C1CC1 (stereo partly drawn) [EC537, (16R,17R)-3,16-dihydroxy-7,8,9,11,12,13,14,15,16,17-decahydro-6H-cyclopenta α phenanthren-17-yl cyclopropanecarboxylate] | 15521.1 | 6229.4 | 1785.5 | 24 | 26 | 3.55 | 4-5 wt % | 4.2 (≈ 11.8 µM) | daily release rate compared to estriol-3-acetate [2]: around 10 fold
3 | CC(=O)Oc1ccc2c(c1)CCC1C2CC[C@@]2(C)C1C[C@@H](O)[C@@H]2O (stereo partly drawn) [EC5104, (8xi,9xi,14xi,16α,17β)-16,17-dihydroxyestra-1(10),2,4-trien-3-yl acetate] | 2891.6 | 1322.0 | 548.1 | 23.7 | 64 | 3.02 | 0.5 wt % | 57.8 | solubility in EVA compared to estriol [4]: comparable to the estriol solubility in EVA
4 | C[C@]12CCC3c4ccc(OC(=O)C5CC5)cc4CCC3C1C[C@@H](O)[C@@H]2O (stereo partly drawn) [EC5105, (8xi,9xi,14xi,16α,17β)-16,17-dihydroxyestra-1(10),2,4-trien-3-yl cyclopropanecarboxylate] | 4301.1 | 1369.8 | 567.3 | 1.76 | 3 | 3.38 | 0.5-2 wt % | 4.9 (≈ 13.7 µM) | Caco-2 permeability, comparison in words [5]: very low permeability compared to the 17 analog
5 | C[C@]12CCC3c4ccc(OC(=O)C5CC5)cc4CCC3C1C[C@@H](O)[C@@H]2OC(=O)C1CC1 (stereo partly drawn) [EC5106, 3,16α,17β-Trihydroxyestra-1,3,5(10)-triene 3,17-biscyclopropane carboxylate] | – | – | – | 11.4 | 25 | 3.99 | – | – | –
6 | C#C[C@]1(O)CC[C@H]2[C@@H]3CCc4cc(O)ccc4[C@H]3CC[C@@]21C [EE, ethinyl estradiol, reference compound] | – | – | – | 42.5 | 59 | 4.52 | – | – | –
7 | C[C@]12CC[C@@H]3c4ccc(O)cc4CC[C@H]3[C@@H]1CC[C@@H]2O [Example E2, estradiol, reference compound] | – | – | – | – | 15 | 4.13 | – | – | log P [6]: 3.94
8 | C[C@]12CC[C@@H]3c4ccc(O)cc4CC[C@H]3[C@@H]1C[C@@H](O)[C@@H]2O [Example E3, Estriol] | 665.1 | 294.5 | 119.4 | – | – | – | 0.5-1% | – | log P [6]: 2.81; reduction in activity compared to estradiol [7]: 10 to 30%; time after application after which no estriol plasma level above the limit could be determined [8]: 4 to 6 h; solubility at 24 h ([9]; water + 2% SLS, aqueous with cosolvent or surfactant or cyclodextrin): 465 µg/mL; solubility at 24 h ([9]; water): 58.4 µg/mL (≈ 203 µM)
9 | CC(=O)Oc1ccc2c(c1)CC[C@@H]1[C@@H]2CC[C@]2(C)[C@@H](O)CC[C@@H]12 [estradiol-3-acetate, estradiol 3-acetate] | – | – | – | – | – | – | – | – | daily release rate compared to estradiol [1]: above 45 fold; solubility in silicone compared to estradiol ([10]; silicone): around 10 fold; solubility in water compared to estradiol ([10]; water): twofold higher
